Measured values: ChEMBL document CHEMBL3259737, “Lead optimization studies of cinnamic amide EP2 antagonists” (J Med Chem, 2014)
Values after ≈ are worked out from the molar mass of the structure shown.

Columns and labels:
[1] = physchem; conditions: PBS buffer, pH 7.4
[2] = tested on: C6; assay: Cytotoxicity against rat C6 cells assessed as cell viability
[3] = Metabolic stability in human liver microsomes assessed as compound remaining at 1 uM after 60 mins
[4] = Metabolic stability in human liver microsomes assessed as compound remaining at 10 uM after 60 mins
[5] = Metabolic stability in mouse liver microsomes assessed as compound remaining at 1 uM after 60 mins
[6] = Metabolic stability in mouse liver microsomes assessed as compound remaining at 10 uM after 60 mins
[7] = Terminal half life in C57BL/6 mouse plasma at 3 mg/kg, ip; format: ADME, organism-based; design: dose 3 mg/kg, route intraperitoneal; conditions: read-out: beta t1/2 (converted)
[8] = molecular target: Prostaglandin E2 receptor EP2 subtype (Homo sapiens) (UniProt P43116); assay: Competitive antagonist activity at human EP2 receptor expressed in rat C6 cells assessed as parallel rightward shift in PGE2 concentration response curve treated for 10 mins prior to PGE2 challenge for 40 mins by TR-FRET assay; format: cell-based
Chain of Prostaglandin E2 receptor EP2 subtype (Homo sapiens) (P43116 whole entry): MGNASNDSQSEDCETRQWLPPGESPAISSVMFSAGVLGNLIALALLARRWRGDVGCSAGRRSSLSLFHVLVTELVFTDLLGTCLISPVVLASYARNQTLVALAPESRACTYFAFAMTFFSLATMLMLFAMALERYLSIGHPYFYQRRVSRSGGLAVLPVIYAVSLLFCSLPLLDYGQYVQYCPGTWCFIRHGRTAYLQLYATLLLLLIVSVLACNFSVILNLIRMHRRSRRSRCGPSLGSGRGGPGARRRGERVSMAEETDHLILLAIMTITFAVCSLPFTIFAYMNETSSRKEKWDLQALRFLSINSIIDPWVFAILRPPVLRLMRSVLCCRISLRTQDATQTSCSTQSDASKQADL

[9] = Ratio of drug level in brain to plasma in C57BL/6 mouse at 5 mg/kg, ip measured after 1 to 2 hrs
[10] = Ratio of drug level in brain to plasma in C57BL/6 mouse at 10 mg/kg, po measured after 1 to 2 hrs
[11] = in vivo; conditions: C57BL/6, mouse, ip, 5 mg/kg
[12] = in vivo; conditions: C57BL/6, mouse, po, 10 mg/kg
[13] = Cmax in C57BL/6 mouse at 3 mg/kg, iv; format: ADME, organism-based; design: dose 3 mg/kg, route intravenous; conditions: in vivo

SMILES	solubility kinetic [1] [µM]	CC50 [2] [µM]	remaining at 1 h, 1 µM [3] [%]	remaining at 1 h, 1 µM [5] [%]	remaining at 1 h, 10 µM [6] [%]	other results
Cc1cc2ccccc2n1CCNC(=O)/C=C/c1ccc(OCCN(C)C)cc1	90 (≈ 35.2 µg/mL)	–	–	–	–	–
Cc1cc(/C=C/C(=O)NCCn2c(C)cc3ccccc32)cc(C)c1F	< 25	368	20.9	18.3	13	remaining at 1 h, 10 µM [4]: 24%; half-life [7]: 34.8 min
COc1cc(/C=C/C(=O)NCCn2c(C)c(CN(C)C)c3ccccc32)cc(OC)c1OC	110 (≈ 49.7 µg/mL)	–	–	–	–	–
Cc1cc(/C=C/C(=O)NCCc2c(C)[nH]c3ccccc23)cc(C)c1F	< 25	317	0.4	0.1	51.7	remaining at 1 h, 10 µM [4]: 21.4%
COc1cc(/C=C/C(=O)NCCn2c(C(F)(F)F)cc3ccccc32)cc(OC)c1OCCO	35 (≈ 16.7 µg/mL)	31.2	–	–	–	–
COc1cc(/C=C/C(=O)NCCn2c(C)cc3ccccc32)cc(OC)c1OCCN(C)C	180 (≈ 81.3 µg/mL)	–	–	–	–	–
Cc1cc2ccccc2n1CCNC(=O)/C=C/c1ccc(OCCO)cc1	68 (≈ 24.8 µg/mL)	81.7	–	–	–	–
Cc1cc2ccccc2n1CCNC(=O)/C=C/c1ccc(OCCCN(C)C)cc1	306 (≈ 124 µg/mL)	–	–	–	–	–
COc1cc(/C=C/C(=O)NCCc2c(C)[nH]c3ccccc23)cc(OC)c1OC	43 (≈ 17 µg/mL)	59.5	0.8	0	0.2	remaining at 1 h, 10 µM [4]: 5.8%
Cc1cc2ccccc2n1CCNC(=O)/C=C/c1ccc(OCCCO)cc1	66 (≈ 25 µg/mL)	36.6	–	–	–	–
Cc1[nH]c2ccccc2c1CCNC(=O)/C=C/c1ccc(OCCO)c(OCCO)c1	235 (≈ 99.8 µg/mL)	126	58.5	7.1	19.3	remaining at 1 h, 10 µM [4]: 70.4%
COc1cc(/C=C/C(=O)NCCn2c(C)c(CN3CCCCC3)c3ccccc32)cc(OC)c1OC	75 (≈ 36.9 µg/mL)	–	–	–	–	–
COc1ccc(/C=C/C(=O)NCCc2c(C)[nH]c3ccccc23)cc1OC	41 (≈ 14.9 µg/mL)	246	12.4	0.2	0.1	remaining at 1 h, 10 µM [4]: 18.6%
COc1cc(/C=C/C(=O)NCCc2c(C)[nH]c3c(F)cc(F)cc23)cc(OC)c1OC	< 25	–	–	–	–	–
COc1cc(/C=C/C(=O)NCCn2c(CNC3CCN(C)CC3)cc3ccccc32)cc(OC)c1OC	180 (≈ 91.2 µg/mL)	–	–	–	–	–
COc1cc(/C=C/C(=O)NCCn2c(CN3CCOCC3)cc3ccccc32)cc(OC)c1OC	91 (≈ 43.6 µg/mL)	–	–	–	–	–
COc1cc(/C=C/C(=O)NCCn2c(C)cc3ccccc32)cc(OC)c1	< 25	–	–	–	–	–
COc1cc(/C=C/C(=O)NCCc2n[nH]c3ccccc23)cc(OC)c1OC	152 (≈ 58 µg/mL)	–	–	–	–	–
COc1cc(/C=C/C(=O)NCCn2c(C)cc3ccccc32)cc(OC)c1OCCO	66 (≈ 28 µg/mL)	43.3	–	–	–	Kb [8]: 0.0067 µM; inhibition [8]: Dose-dependent effect
Cc1cc2ccccc2n1CCNC(=O)/C=C/c1ccc(OCCO)c(OCCO)c1	153 (≈ 64.9 µg/mL)	92.3	16.2	1.7	8.7	Kp [9]: < 0.1; Kp [10]: < 0.1; Cmax [11]: 1510 ng/mL; Cmax [12]: 128 ng/mL
COc1cc(/C=C/C(=O)NCCn2c(C)cc3ccccc32)cc(OC)c1OC	45 (≈ 17.8 µg/mL)	172	0.1	0.2	4.8	remaining at 1 h, 10 µM [4]: 10.6%; Cmax [13]: 2400 ng/mL
O=C(/C=C/c1ccc(OCCO)c(OCCO)c1)NCCn1c(C(F)(F)F)cc2ccccc21	67 (≈ 32.1 µg/mL)	–	–	–	–	–
